Reference: ChEMBL document CHEMBL1201862, “PubChem BioAssay data set” (2004)
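Where inhibition never reached the appropriate level, the endpoint shown equals the highest concentration tested. Otherwise, values were interpolated linearly from a five-concentration, 48-hour dose response in 96-well plates. GI50: concentration for 50% inhibition of growth.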 Calls of active or inactive are those of the source. No stated cut-off is given here; in the data, active = GI50 up to about 1.1 µM and inactive = higher.

Key:
Test in all cases: inhibition of tumour cell growth, NCI panel, 48 h
DMS-273 = test system: DMS-273
HCT-15 = test system: HCT-15
HOP-18 = test system: HOP-18
KM12 = test system: KM12
LOX IMVI = test system: LOX IMVI
M19-MEL = test system: M19-MEL
MCF7 = test system: MCF7
MOLT-4 = test system: MOLT-4
Malme-3M = test system: Malme-3M
NCI-H522 = test system: NCI-H522
RPMI-8226 = test system: RPMI-8226
SF-268 = test system: SF-268
SN12C = test system: SN12C
SNB-78 = test system: SNB-78
U-251 = test system: U-251
UACC-62 = test system: UACC-62
XF498 = test system: XF498

## CC(C)(C)c1ccc2c(c1)OP1(Oc3cccc4cccnc34)(O2)Oc2ccc(C(C)(C)C)cc2O1
DMS-273
  GI50: 3.75 µM (inactive)
HCT-15
  GI50: 2860 nM
HOP-18
  GI50: 20.4 µM (inactive)
KM12
  GI50: 6.73 µM (inactive)
LOX IMVI
  GI50: 3.68 µM (inactive)
M19-MEL
  GI50: 10.5 µM (inactive)
MCF7
  GI50: 655 nM (active)
MOLT-4
  GI50: 570 nM (active)
Malme-3M
  GI50: 5.28 µM (inactive)
NCI-H522
  GI50: 4.9 µM (inactive)
RPMI-8226
  GI50: 597 nM (active)
SF-268
  GI50: 6.56 µM (inactive)
SN12C
  GI50: 12.8 µM (inactive)
SNB-78
  GI50: 34.4 µM (inactive)
U-251
  GI50: 7 µM (inactive)
UACC-62
  GI50: 3.26 µM (inactive)
XF498
  GI50: 2.72 µM (inactive)

## C=C1C(O)C2(O)OCC34C(CC5C(C)=CC(=O)C(O)C5(C)C23)OC(=O)C(OC(=O)C/C=C/CCCCCCCC)C14 (stereo not drawn)
DMS-273
  GI50: 0.02 µM (active)
HCT-15
  GI50: 24.1 nM
HOP-18
  GI50: 0.0776 µM (active)
KM12
  GI50: 0.0294 µM (active)
LOX IMVI
  GI50: 0.0237 µM (active)
M19-MEL
  GI50: 0.02 µM (active)
MOLT-4
  GI50: 20 nM (active)
Malme-3M
  GI50: 0.02 µM (active)
NCI-H522
  GI50: 0.02 µM (active)
RPMI-8226
  GI50: 20 nM (active)
SF-268
  GI50: 0.0209 µM (active)
SN12C
  GI50: 0.0275 µM (active)
SNB-78
  GI50: 0.0219 µM (active)
U-251
  GI50: 0.02 µM (active)
UACC-62
  GI50: 0.0214 µM (active)
XF498
  GI50: 0.0221 µM (active)
